Patent publication US8457712B2, “Multi-mode medical device system and methods of manufacturing and using same” (Wisconsin Alumni Research Foundation, priority 2005, dated 2013)

Test: Diffusion of a fluorescent probe in swollen gelatin gel by FRAP
Assay type: physicochemical
Excerpt: To assess the stability of DTPA[Gd(III)] in the gelatin coating, the diffusion of a fluorescence probe in gelatin was studied by the technique of fluorescence recovery after photobleaching (FRAP). The instrument and data analysis scheme are described in Kim, S. H. and Yu, H., J. Phys. Chem. 1992, 96, 4034, which is hereby fully incorporated by reference. Fluorescein was used as the fluorescence probe due, in part, to its molecular size being roughly the same as that of DTPA[Gd(III)]. The focus of the study was to examine the possible retardation effects of gelatin concentration and cross-link density on the diffusion, which was determined at room temperature, i.e., below the gel point of gelatin. The diffusion of fluorescein probe slows down with the increase of gelatin concentration. The diffusion coefficient decreases from 1.5×10-10 to 9×10-12 […]-1 when the concentration of gelatin increases from 9% to 40%. […] Accordingly, the probe diffusion is more likely controlled by the concentration of gelatin rather than the cross-link density. On the other hand, the cross-link density may determine the swelling ratio of gelatin, i.e., the concentration of gelatin in aqueous solution. […]

time to diffuse out of the gelatin coating (estimated for coating thickness 60 μm and diffusion coefficient 9×10-12 m2s-1)	fluorescence signal remaining in gelatin films (after soaking in water for 18 hours, including films not cross-linked)	Structure (SMILES)
about 67 seconds		O=C(O)CN(CCN(CC(=O)O)CC(=O)O)CCN(CC(=O)O)CC(=O)O [DTPA, diethylenetriaminepentaacetic acid]
	still fluorescence signal	O=C1OC2(c3ccc(O)cc3Oc3cc(O)ccc32)c2ccccc21 [fluorescein]
